Experimental data: patent US20060111408A1, “Therapeutic benzothiazole compounds” (priority 2000, published 2006)

Experiments:
[1] = target: T1, αER (Homo sapiens, UniProt P03372); assay: Cell-based assay for ER transcriptional activity (ERE β-gal reporter), αER-transfected 293 cells; conditions: for EC50: 293 cells transfected with αER and ERE β-gal reporter, read-out: ERE α-ER EC50; for ERE α-ER Max: 293 cells transfected with αER, max controls 10 nM beta-estradiol
T1 construct: expressed in transfected cells; host or cells: 293 cells (Human Embryonic Kidney, ATCC CRL-1573); the transfection step says 293T
T1 sequence (P03372 1-595): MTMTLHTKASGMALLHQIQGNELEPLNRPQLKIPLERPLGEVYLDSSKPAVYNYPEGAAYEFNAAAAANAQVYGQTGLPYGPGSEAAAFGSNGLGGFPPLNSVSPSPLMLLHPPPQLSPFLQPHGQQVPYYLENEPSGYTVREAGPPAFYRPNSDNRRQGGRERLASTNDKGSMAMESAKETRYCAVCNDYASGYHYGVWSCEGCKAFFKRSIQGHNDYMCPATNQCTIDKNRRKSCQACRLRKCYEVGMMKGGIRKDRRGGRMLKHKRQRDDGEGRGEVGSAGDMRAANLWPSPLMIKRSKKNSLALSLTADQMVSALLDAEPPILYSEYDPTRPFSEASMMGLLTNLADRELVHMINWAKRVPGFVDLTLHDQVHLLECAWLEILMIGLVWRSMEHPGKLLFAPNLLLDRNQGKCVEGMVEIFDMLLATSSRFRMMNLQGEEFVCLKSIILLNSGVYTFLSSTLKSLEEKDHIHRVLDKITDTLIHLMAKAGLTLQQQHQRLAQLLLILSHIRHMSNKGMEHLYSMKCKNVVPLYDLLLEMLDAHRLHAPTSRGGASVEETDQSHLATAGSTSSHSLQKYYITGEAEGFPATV
Protocol: (§1) Cell-based Assay for ER Transcriptional Activity:
(§2) ERs are ligand-dependent transcription factors that bind the promoter regions of genes at a consensus DNA sequence called the estrogen responsive element (ERE). The ER agonist or antagonist activity of a drug was determined by measuring the amount of reporter enzyme activity expressed from a plasmid under the control of an estrogen-responsive element when cells transiently transfected with ER and the reporter plasmid were exposed to drug. These experiments were conducted according to the following methods.
(§3) Cells are grown in DMEM supplemented with 10% FBS, glutamine, sodium pyruvate and penicillin/streptomycin. Cells are grown to 80% confluency and split 1:10 or 1:20.
(§4) 2. The next day the media is changed, 1 hour prior to transfection, to fresh phenol red-free DMEM 10% FBS (charcoal stripped) and supplements.
(§5) 3. Transfections are performed using the Profection Kit from Promega #El 200, this kit is based on calcium phosphate mediated transfection. Reagents are added in sterile polystyrene tubes in the following order:
(§6) 6. The day after transfection, cells are washed 2× with PBS Ca Mg freePBS containing 1 mM EGTA pH=7.6. […] Trypsin is neutralized with 6 ml DMEM (no phenol red)+10% charcoal stripped FBS. Cells are pelleted at 1000×g for 5 min. Cell pellet is resuspended in 10 ml DMEM (no phenol red)+2% charcoal stripped FBS supplemented with glutamine and Penn/Strep and the cells are counted. Additional medium is added to dilute the cell density to 500,000 cells/ml.
(§7) 7. […] Plates are incubated for approx. 2-4 hours to allow cells to attach.
(§8) 8. Compounds are prepared at concentration of 4 mM in 100% DMSO, then diluted into medium with supplements but no serum. The first 2 dilutions are done in medium with no DMSO, then the remaining dilutions are in medium plus 0.5% DMSO to keep the vehicle constant. Max controls are 10 nM beta-estradiol and background controls are 0.5% DMSO. Compounds are normally tested in the range of 10 uM to 1 nM and are prepared at twice the concentration to be tested. The compounds are added to the cell plates, 50 ul per well. All compounds are tested with an n=4 wells for single poke and n=2 for 9-pt curves.
(§9) 9. Cells are incubated overnight at 37° C. with the compounds.
(§10) 1. After 18-24 hr of stimulation, 100 ul of 7% CPRG cocktail is added to each well, the plate is incubated at 37C for approximately 30 minutes to 2 hours or until the OD reaches between 1.0 and 2.0.
(§11) 2. The plates are read on a spectrophotometric plate reader (Spectramax, Molecular Devices) at 570 nm and raw absorbances are obtained.
(§12) Data is compiled and interpreted with Excel using XLFit or GraphPad Prism to fit concentration-response curves.

[2] = target: T2, human recombinant ERα (Homo sapiens, UniProt P03372); assay: Fluorescence polarization estrogen receptor (ERFP) binding assay, ERα; conditions: fluorescence polarization competition with Fluormone ES2; IC50 converted to Ki by Kenakin formula; read-out: FP α-ER Ki
T2 construct: purchased PanVera (Madison, Wis.)
T2 sequence (P03372 1-595): T1 sequence (P03372 1-595)
Protocol: (§13) Abbreviated Procedure for Fluorescence Polarization Estrogen Receptor (ERFP) Binding Assay
(§14) A homogeneous mix-and-measure estrogen receptor (ER) binding assay which utilizes fluorescence polarization (FP) technology is used to identify compounds with affinity for the estrogen receptor. Purchased from PanVera (Madison, Wis.), assay reagents include purified human recombinant ERα, human recombinant ERβ, ES2 screening buffer (100 mM potassium phosphate, pH 7.4, 100 μg/mL bovine gamma globulin), and Fluormone™ ES2.
For competition binding experiments, dilutions of test compounds are prepared at 2× the final assay concentration in 0.2% DMSO in ES2 Screening buffer on TECAN Genosys, and 25 μL compound/well is dispensed into black Costar ½ volume 96-well plates. […] Plates are gently shaken for at least 5 minutes to mix and incubated for at least 1 hr 45 minutes to achieve equilibrium. (Reaction mixtures are stable for up to 5 hours). After centrifugation to remove air bubbles, plates are read on an LJL Analyst or Acquest equipped with Criterion software at the following settings: Fluorescence Polarization Mode; Static Polarizer on Excitation Side; Dynamic Polarizer on Emission Side; Excitation λ=485+/−10 nm; Emission λ=520+/−12.5 nm.
(§15) Polarized fluorescence intensity values are collected and subsequently converted electronically to millipolarization (mp) values. Following data reduction and normalization with Excel and/or Prism software, % Ctrl values at the various test concentrations are used to obtain IC50 values via non-linear regression analysis of a four-parameter logistic equation.
Reference: Bolger et al., Rapid Screening of Environmental Chemicals for Estrogen Receptor Binding Capacity, Environmental Health Pespectives: 106 (1998), 1-7.

[3] = target: T3, βER (Homo sapiens, UniProt Q92731); assay: Cell-based assay for ER transcriptional activity (ERE β-gal reporter), βER-transfected 293 cells; conditions: for EC50: 293 cells transfected with βER and ERE β-gal reporter; for Emax: HEK293, 293 cells transfected with βER, max controls 10 nM beta-estradiol; for ERE Selectivity: β-ER over α-ER, from ERE EC50 values
T3 construct: expressed in transfected cells; host or cells: 293 cells (Human Embryonic Kidney, ATCC CRL-1573); the transfection step says 293T
T3 sequence (Q92731 54-530 limits assumed): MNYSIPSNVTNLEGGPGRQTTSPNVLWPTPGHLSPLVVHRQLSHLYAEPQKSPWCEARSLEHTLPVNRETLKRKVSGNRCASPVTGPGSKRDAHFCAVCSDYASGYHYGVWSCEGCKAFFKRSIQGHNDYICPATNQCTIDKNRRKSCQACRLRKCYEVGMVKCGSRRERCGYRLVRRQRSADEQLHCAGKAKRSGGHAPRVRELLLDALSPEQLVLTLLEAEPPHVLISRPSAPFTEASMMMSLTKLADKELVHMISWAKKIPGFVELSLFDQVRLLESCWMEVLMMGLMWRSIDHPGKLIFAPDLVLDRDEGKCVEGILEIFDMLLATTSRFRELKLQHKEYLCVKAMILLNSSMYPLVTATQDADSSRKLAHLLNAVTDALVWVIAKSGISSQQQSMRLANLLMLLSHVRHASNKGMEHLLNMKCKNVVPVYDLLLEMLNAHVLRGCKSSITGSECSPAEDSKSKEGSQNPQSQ
Protocol: as §1, §2, §3, §4, §5, §6, §7, §8, §9, §10, §11, §12

[4] = target: T4, human recombinant ERβ (Homo sapiens, UniProt Q92731); assay: Fluorescence polarization estrogen receptor (ERFP) binding assay, ERβ; conditions: for Ki: fluorescence polarization competition with Fluormone ES2, IC50 converted to Ki by Kenakin formula, read-out: FP β-ER Ki; for FP Selectivity: β-ER over α-ER, from FP Ki values
T4 construct: purchased PanVera (Madison, Wis.)
T4 sequence (Q92731 whole entry): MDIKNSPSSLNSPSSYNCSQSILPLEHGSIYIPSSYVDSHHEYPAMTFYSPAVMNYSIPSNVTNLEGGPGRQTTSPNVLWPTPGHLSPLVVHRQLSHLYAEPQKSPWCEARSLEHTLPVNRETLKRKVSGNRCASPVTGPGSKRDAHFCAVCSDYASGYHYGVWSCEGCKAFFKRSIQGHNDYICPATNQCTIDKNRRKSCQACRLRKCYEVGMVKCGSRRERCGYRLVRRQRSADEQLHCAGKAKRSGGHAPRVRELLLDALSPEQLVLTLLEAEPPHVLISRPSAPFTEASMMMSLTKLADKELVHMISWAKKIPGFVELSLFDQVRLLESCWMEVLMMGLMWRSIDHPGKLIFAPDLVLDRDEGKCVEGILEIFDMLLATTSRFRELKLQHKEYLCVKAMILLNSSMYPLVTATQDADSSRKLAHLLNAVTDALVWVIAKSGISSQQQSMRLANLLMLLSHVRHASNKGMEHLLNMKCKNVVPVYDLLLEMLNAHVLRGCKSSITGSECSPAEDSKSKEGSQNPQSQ
Protocol: as §13, §14
For competition binding experiments, dilutions of test compounds are prepared at 2× the final assay concentration in 0.2% DMSO in ES2 Screening buffer on TECAN Genosys, and 25 μL compound/well is dispensed into black Costar ½ volume 96-well plates. […] Plates are gently shaken for at least 5 minutes to mix and incubated for at least 1 hr 45 minutes to achieve equilibrium. (Reaction mixtures are stable for up to 5 hours).
as §15

EC50 [1] | ERE α-ER Max [1] | Ki [2] | EC50 [3] | Emax [3] | ERE Selectivity [3] | Ki [4] | FP Selectivity [4] | SMILES
497 nM | 102% | 121 nM | 23 nM | 89% | 22 | 4.8 nM | 25 | Cc1cc(O)cc2oc(-c3ccc(O)cc3)nc12 [Example 3, 6-Hydroxy-2-(4-hydroxyphenyl)-4-methylbenzoxazole]
61 nM | 103% | 18 nM | 1.2 nM | 98% | 52 | 1.7 nM | 10 | Oc1ccc(-c2nc3c(Cl)cc(O)cc3o2)cc1 [Example 1, 4-Chloro-6-hydroxy-2-(4-hydroxyphenyl)benzoxazole]
 |  | 477 nM |  |  |  | 148 nM | 3 | COc1ccc2oc(-c3ccc(O)cc3)nc2c1 [Example 8, 2-(4-hydroxyphenyl)-5-methoxybenzoxazole]
 | 102% | 1000 nM |  | 98% | 1.8 | 290 nM | 3 | Oc1ccc(-c2nc3c(O)cc(O)cc3o2)cc1 [Example 5, 4,6-Dihydroxy-2-(4-hydroxyphenyl)benzoxazole]
76 nM | 37% | 54 nM | 0.5 nM | 81% | 153 | 1.8 nM | 30 | Oc1cc(Br)c2oc(-c3ccc(O)c(Cl)c3)nc2c1 [Example 12, 7-Bromo-2-(3-chloro-4-hydroxy-phenyl)-benzooxazol-5-ol]
